In one data set the test system is Lewis lung carcinoma. As to the kind of experiment: Mouse Lewis lung carcinoma model. The conditions noted are these: scrambled aptamer 50 mg/kg.
Data set [1] deals with T1, PDGF BB (Homo sapiens, UniProt P01127). As to the kind of experiment: Competition binding assay, PDGF-BB. Details: purchased PeproTech, Rocky Hill, N.J. The conditions noted are these: scrambled variant. The method, then: Binding reactions were carried out in phosphate-buffered saline (Cellgro, Herndon, Va.) containing 0.2 mg/mL bovine serum albumin (NEB) and 0.02 mg/mL tRNA (Sigma, St. Louis, Mo.). The reactions were equilibrated for a period of 15-30 minutes at room temperature, then filtered through a sandwich of nitrocellulose (Protran membrane, Perkin-Elmer, Boston, Mass.) and nylon (Hybond membrane, Amersham, Piscataway, N.J.) membranes to separate target bound aptamer from free aptamer.
Next, a study was done to determine whether ARC126 cross reacted with PDGF-BB of species other than human. Competition binding assays were set up by dot blot analysis, as previously described, using human, rat, and mouse PDGF-BB (PeproTech, Rocky Hill, N.J.).
The competitive binding assay previously described was used to determine the in vitro binding affinity and selectivity of ARC594 for different PDGF isoforms. Different concentrations of unlabeled, competitor aptamer were titrated in separate reactions against a fixed (<0.1 nM) amount of ^32P-radiolabeled ARC594 in buffer containing a fixed amount (0.1 nM) of the aptamer's cognate target (PDGF-BB; PeproTech). UnPEGylated version of ARC594 was radiolabeled at the 5′ terminus by incubation with γ-^32P-ATP (ICN) and polynucleotide kinase (NEB). Binding reactions were carried out in phosphate-buffered saline (Cellgro) containing 0.2 mg/mL bovine serum albumin (NEB) and 0.02 mg/mL tRNA (Sigma). The reactions were equilibrated for a period of 15-30 minutes at room temperature, then filtered through a sandwich of nitrocellulose (Protran membrane, Perkin-Elmer) and nylon (Hybond membrane, Amersham) membranes to separate target bound aptamer from free aptamer. […] The data was expressed as the ratio of the counts per minute (CPM) of radioactivity due to ^32P-ARC594 bound to PDGF BB on the nitrocellulose membrane (CPMnitrocellulose or CPMnc) over the total CPM (CPMtotal=CPMnitrocellulose+CPMnylon).

Data set [2] has as its target T1, PDGF BB. As to conditions: in vivo, iv, 10 mg/kg.
Protocol: As a secondary test of both the plasma pharmacokinetics and the in vivo bioactivity of ARC594 the competition binding assay was used to assay the same plasma samples used to generate the pharmacokinetic data. Serial 1:10 dilutions of plasma sample were prepared in phosphate-buffered saline (1×PBS) and mixed with a fixed concentration of ^32P-ARC594, then added to human PDGF-BB. The final concentration of PDGF in each assay was 0.1 nM, and the final concentration of ^32P-ARC594<0.1 nM. In this experiment, the plasma samples were analyzed by comparison with a standard curve generated with samples of known ARC594 concentrations in 1×PBS.
Data set [3] in a line: Pharmacokinetics of ARC126 5′ PEG conjugates in mice.
Description: The pharmacokinetic (PK) data shown in FIG. 12A was subjected to non-compartmental analysis (NCA) using the industry-standard software package WinNonLin™ v.4.0 (Pharsight Corp., Mountain View, Calif.). […] The pharmacokinetic (PK) data shown in FIG. 12B was subjected to noncompartmental analysis (NCA) using the industry-standard software package WinNonLin™ v.4.0 (Pharsight Corp., Mountain View, Calif.).
The pharmacokinetic (PK) data shown in FIG. 12B was subjected to noncompartmental analysis (NCA) using the industry-standard software package WinNonLin™ v.4.0 (Pharsight Corp., Mountain View, Calif.).
[4] abbreviates: IV administration at 10 mg/kg in mice.

{PEG40k} = 40 kDa polyethylene glycol; [invdT] = inverted (3'-3') thymidine; [HEG] = hexaethylene glycol spacer

T1 sequence (P01127 82-190 limits assumed): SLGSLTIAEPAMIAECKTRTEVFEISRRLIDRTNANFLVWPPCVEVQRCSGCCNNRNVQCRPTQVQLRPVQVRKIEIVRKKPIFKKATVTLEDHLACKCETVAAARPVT
Description for Lewis lung carcinoma: A 1 mm^3 piece of Lewis lung carcinoma was implanted under the dorsal skin of wild-type C57BL/6 mice and allowed to grow. […] At the end of the seven day period, the mice were anesthetized, and the following tissues were fixed by vascular perfusion with 1% paraformaldehyde, removed and frozen for cryotstat sectioning: tumor (Lewis lung carcinoma), pancreas, liver, kidney, trachea, spleen, jejunum, and thyroid tissue. The resulting slides were stained with antibodies against various markers as described below.
Sections of tumors were cut (80 μm) and stained with either anti-CD31 or anti-α smooth muscle actin (“α-SMA”) antibodies. Digital fluorescence microscopic images were obtained for area density measurements by using a CoolCam low-light 3-chip RGB CCD camera. […] In addition, the tumors were imaged by confocal microscopy. […]
Sections of tumors were cut (80 μm) and stained with either anti-CD31 or anti-type IV collagen antibodies. Digital fluorescence microscopic images were obtained for area density measurements by using a CoolCam camera. […]
Pericyte expression was measured using the Cool Cam and confocal images were also taken.
The extent of pericyte colocalization with endothelial cells was then measured on digital Cool Cam images.
The extent of pericyte colocalization with endothelial cells was measured on digital CoolCam images. […]

On to “5′-(SEQ ID NO.4)-HEG-(SEQ ID NO:5)-HEG-(SEQ ID NO:6)-3 (chain 1 CAGCGUACG; chain 2 CGTACCGATUCA; chain 3 TGAAGCUG; HEG spacers joining pieces; synthetic aptamer; modified_base (4)..(4) cytidine is 2′-fluoro; modified_base (5)..(5) gm; modified_base (6)..(6) uridine is 2′-fluoro; modified_base (8)..(8) cytidine is 2′-fluoro; modified_base (9)..(9) gm; modified_base (7)..(7) gm; modified_base (10)..(10) uridine is 2′-fluoro; modified_base (11)..(11) cytidine is 2′-fluoro; modified_base (12)..(12) adenosine is 2′-O-Methyl; modified_base (6)..(6) cytidine is 2′-fluoro; modified_base (7)..(7) uridine is 2′-fluoro; modified_base (8)..(8) gm) [ARC128, reference compound]”, for which the “effect on tumor vasculature (confocal images)” value with Lewis lung carcinoma is reported as “did not affect the tumor vasculature”. The “binding to PDGF” value with PDGF BB [1] is on record as “no longer binds PDGF”.
As to “5′-[40 K PEG]-(SEQ ID NO:1)-HEG-(SEQ ID NO:2)-HEG-(SEQ ID NO:3)-3′-dT-3′ (chain 1 CAGGCUACG; chain 2 CGTAGAGCAUCA; chain 3 TGATCCUG; piece 1: 2'-fluoro at 6, 8, 2'-O-methyl at 9, 5' {PEG40k}, 3' [HEG], other sugars and backbone not given here; piece 2: 2'-O-methyl at 5, 7, 12, 2'-fluoro at 10, 11, 3' [HEG], other sugars and backbone not given here; piece 3: 2'-fluoro at 5, 6, 7, 2'-O-methyl at 8, 3' [invdT], other sugars and backbone not given here) [ARC127]”, the “active aptamer in plasma” value with PDGF BB [2] is “present and active”. Also, in data set [3] (IP, 10 mg/kg in mice), the “AUC” value was 143605.5 nM·h, the “MRT” value stood at 11.231 h and the “tmax” value was determined as 8 h. In data set [3] (setting [4]), the Cmax worked out at 61 µM, the “MRT” value was found to be 5.08 h and the “Vs” value turned out to be 0.0001 L/kg. Moreover, in data set [3] (IV, 10 mg/kg in mice), the “AUC” value is 229686.8 nM·h, the “MRT” value amounted to 6.573 h and the “tmax” value was determined as 2 h. Also, the “plasma concentration at 24 hrs post-dose” value in data set [3] (IV, IP or SC, 10 mg/kg in mice) is reported as roughly 1. Further, in data set [3] (SC, 10 mg/kg in mice), the “AUC” value came out at 55030.91 nM·h, the “MRT” value is 16.632 h and the “tmax” value came out at 8 h. Also, in data set [3] (intraperitoneal (IP), 10 mg/kg in mice), the “systemic bioavailability, F” value was roughly 63%. For the same substance, the “systemic bioavailability, F” value in data set [3] (subcutaneous (SC), 10 mg/kg in mice) was roughly 24%.

These data come from patent US20090053138A1, “Stabilized Aptamers to Platelet Derived Growth Factor and their Use as Oncology Therapeutics” (priority 2002, published 2009).
